In patent publication US20230143604A1, “QW DOSING OF GIP RECEPTOR AGONIST PEPTIDE COMPOUNDS AND USES THEREOF” (TAKEDA PHARMACEUTICAL COMPANY LIMITED, priority 2020, published 2023):
Starred links: 1 amine or outer side, 2 acyl side, 3 side chain; linkers in the order of their positions; H or OH if unused. Non-standard residues stand in square brackets, D forms with d. Residues, ends and D or L forms follow the SMILES beside them. Groups on a side chain read outwards from the residue. *: point of attachment. C20 diacid = O=C(O)CCCCCCCCCCCCCCCCCCC(=O)*; C18 diacid = O=C(O)CCCCCCCCCCCCCCCCC(=O)*; C17 diacid = O=C(O)CCCCCCCCCCCCCCCC(=O)*; γGlu = O=C(O)[C@H](CCC(=O)[*:2])N[*:1]; NMeY = CN[C@@H](Cc1ccc(O)cc1)C(=O)O; AEEA = NCCOCCOCC(=O)O; Aib = CC(C)(N)C(=O)O

Assay: Solubility in phosphate buffer pH 7.4
Method in brief: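 3 mg of peptide treated with 100 μL portions of 200 mM phosphate buffer pH 7.4, sonicating/vortexing up to 1 min, with further buffer added until fully dissolved. Solubility then quantified by HPLC.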

[1] = pH 7.4, aqueous buffer, pH 7.4 Phosphate Buffer - Solubility, 200 mM Phosphate buffer pH 7.4
[2] = pH 7.4, solubility in phosphate buffer at pH 7.4, 200 mM phosphate buffer pH 7.4

| SMILES | solubility [1] [mg/mL] | solubility [2] [mg/mL] |
| --- | --- | --- |
| CC[C@H](C)[C@H](NC(=O)[C@H](Cc1ccccc1)NC(=O)[C@@H](NC(=O)CNC(=O)[C@H](CCC(=O)O)NC(=O)C(C)(C)NC(=O)[C@H](Cc1ccc(O)cc1)NC)[C@@H](C)O)C(=O)N[C@@H](CO)C(=O)N[C@@H](CC(=O)O)C(=O)N[C@@H](Cc1ccc(O)cc1)C(=O)N[C@@H](CO)C(=O)N[C@H](C(=O)NC(C)(C)C(=O)N[C@@H](CC(C)C)C(=O)N[C@@H](CC(=O)O)C(=O)N[C@@H](CCCNC(=N)N)C(=O)NC(C)(C)C(=O)N[C@@H](C)C(=O)N[C@@H](CCC(N)=O)C(=O)NC(C)(C)C(=O)N[C@@H](CCCCNC(=O)COCCOCCNC(=O)COCCOCCNC(=O)CC[C@H](NC(=O)CCCCCCCCCCCCCCCCC(=O)O)C(=O)O)C(=O)N[C@@H](Cc1ccccc1)C(=O)N[C@H](C(=O)N[C@@H](CC(N)=O)C(=O)N[C@@H](Cc1c[nH]c2ccccc12)C(=O)N[C@@H](CC(C)C)C(=O)N[C@@H](CC(C)C)C(=O)N[C@@H](C)C(=O)N[C@@H](CCC(N)=O)C(=O)N[C@@H](CO)C(=O)N1CCC[C@H]1C(=O)N[C@@H](CO)C(=O)N[C@@H](CO)C(=O)NCC(=O)N[C@@H](C)C(=O)N1CCC[C@H]1C(=O)N1CCC[C@H]1C(=O)N1CCC[C@H]1C(=O)N[C@@H](CO)C(N)=O)C(C)C)[C@@H](C)CC [Compound 91] (H-[NMeY][Aib]EGTFISDYSI[Aib]LDR[Aib]AQ[Aib]K([AEEA-AEEA-γGlu-C18 diacid])FVNWLLAQSPSSGAPPPS-NH2) | ≥ 60 | ≥ 15 |
| CC[C@H](C)[C@H](NC(=O)[C@H](Cc1ccccc1)NC(=O)[C@@H](NC(=O)CNC(=O)[C@H](CCC(=O)O)NC(=O)C(C)(C)NC(=O)[C@H](Cc1ccc(O)cc1)NC)[C@@H](C)O)C(=O)N[C@@H](CO)C(=O)N[C@@H](CC(=O)O)C(=O)N[C@@H](Cc1ccc(O)cc1)C(=O)N[C@@H](CO)C(=O)N[C@H](C(=O)NC(C)(C)C(=O)N[C@@H](CC(C)C)C(=O)N[C@@H](CC(=O)O)C(=O)N[C@@H](CCCNC(=N)N)C(=O)NC(C)(C)C(=O)N[C@@H](C)C(=O)N[C@@H](CCC(N)=O)C(=O)NC(C)(C)C(=O)N[C@@H](CCCCNC(=O)COCCOCCNC(=O)CC[C@H](NC(=O)COCCOCCNC(=O)CC[C@H](NC(=O)CCCCCCCCCCCCCCCCC(=O)O)C(=O)O)C(=O)O)C(=O)N[C@@H](Cc1ccccc1)C(=O)N[C@H](C(=O)N[C@@H](CC(N)=O)C(=O)N[C@@H](Cc1c[nH]c2ccccc12)C(=O)N[C@@H](CC(C)C)C(=O)N[C@@H](CC(C)C)C(=O)N[C@@H](C)C(=O)N[C@@H](CCC(N)=O)C(=O)N[C@@H](CO)C(=O)N1CCC[C@H]1C(=O)N[C@@H](CO)C(=O)N[C@@H](CO)C(=O)NCC(=O)N[C@@H](C)C(=O)N1CCC[C@H]1C(=O)N1CCC[C@H]1C(=O)N1CCC[C@H]1C(=O)N[C@@H](CO)C(N)=O)C(C)C)[C@@H](C)CC [Compound 92] (H-[NMeY][Aib]EGTFISDYSI[Aib]LDR[Aib]AQ[Aib]K([AEEA-γGlu-AEEA-γGlu-C18 diacid])FVNWLLAQSPSSGAPPPS-NH2) | ≥ 60 | ≥ 15 |
| CC[C@H](C)[C@H](NC(=O)[C@H](Cc1ccccc1)NC(=O)[C@@H](NC(=O)CNC(=O)[C@H](CCC(=O)O)NC(=O)C(C)(C)NC(=O)[C@H](Cc1ccc(O)cc1)NC)[C@@H](C)O)C(=O)N[C@@H](CO)C(=O)N[C@@H](CC(=O)O)C(=O)N[C@@H](Cc1ccc(O)cc1)C(=O)N[C@@H](CO)C(=O)N[C@H](C(=O)NC(C)(C)C(=O)N[C@@H](CC(C)C)C(=O)N[C@@H](CC(=O)O)C(=O)N[C@@H](CCCNC(=N)N)C(=O)NC(C)(C)C(=O)N[C@@H](C)C(=O)N[C@@H](CCC(N)=O)C(=O)NC(C)(C)C(=O)N[C@@H](CCCCNC(=O)COCCOCCNC(=O)CC[C@H](NC(=O)CC[C@H](NC(=O)CCCCCCCCCCCCCCCCC(=O)O)C(=O)O)C(=O)O)C(=O)N[C@@H](Cc1ccccc1)C(=O)N[C@H](C(=O)N[C@@H](CC(N)=O)C(=O)N[C@@H](Cc1c[nH]c2ccccc12)C(=O)N[C@@H](CC(C)C)C(=O)N[C@@H](CC(C)C)C(=O)N[C@@H](C)C(=O)N[C@@H](CCC(N)=O)C(=O)N[C@@H](CO)C(=O)N1CCC[C@H]1C(=O)N[C@@H](CO)C(=O)N[C@@H](CO)C(=O)NCC(=O)N[C@@H](C)C(=O)N1CCC[C@H]1C(=O)N1CCC[C@H]1C(=O)N1CCC[C@H]1C(=O)N[C@@H](CO)C(N)=O)C(C)C)[C@@H](C)CC [Compound 93] (H-[NMeY][Aib]EGTFISDYSI[Aib]LDR[Aib]AQ[Aib]K([AEEA-γGlu-γGlu-C18 diacid])FVNWLLAQSPSSGAPPPS-NH2) | ≥ 60 | ≥ 15 |
| CC[C@H](C)[C@H](NC(=O)[C@H](Cc1ccccc1)NC(=O)[C@@H](NC(=O)CNC(=O)[C@H](CCC(=O)O)NC(=O)C(C)(C)NC(=O)[C@H](Cc1ccc(O)cc1)NC)[C@@H](C)O)C(=O)N[C@@H](CO)C(=O)N[C@@H](CC(=O)O)C(=O)N[C@@H](Cc1ccc(O)cc1)C(=O)N[C@@H](CO)C(=O)N[C@H](C(=O)NC(C)(C)C(=O)N[C@@H](CC(C)C)C(=O)N[C@@H](CC(=O)O)C(=O)N[C@@H](CCCNC(=N)N)C(=O)NC(C)(C)C(=O)N[C@@H](C)C(=O)N[C@@H](CCC(N)=O)C(=O)NC(C)(C)C(=O)N[C@@H](CCCCNC(=O)COCCOCCNC(=O)COCCOCCNC(=O)CC[C@H](NC(=O)CC[C@H](NC(=O)CCCCCCCCCCCCCCCC(=O)O)C(=O)O)C(=O)O)C(=O)N[C@@H](Cc1ccccc1)C(=O)N[C@H](C(=O)N[C@@H](CC(N)=O)C(=O)N[C@@H](Cc1c[nH]c2ccccc12)C(=O)N[C@@H](CC(C)C)C(=O)N[C@@H](CC(C)C)C(=O)N[C@@H](C)C(=O)N[C@@H](CCC(N)=O)C(=O)N[C@@H](CO)C(=O)N1CCC[C@H]1C(=O)N[C@@H](CO)C(=O)N[C@@H](CO)C(=O)NCC(=O)N[C@@H](C)C(=O)N1CCC[C@H]1C(=O)N1CCC[C@H]1C(=O)N1CCC[C@H]1C(=O)N[C@@H](CO)C(N)=O)C(C)C)[C@@H](C)CC [Compound 94] (H-[NMeY][Aib]EGTFISDYSI[Aib]LDR[Aib]AQ[Aib]K([AEEA-AEEA-γGlu-γGlu-C17 diacid])FVNWLLAQSPSSGAPPPS-NH2) | ≥ 60 | ≥ 15 |
| CC[C@H](C)[C@H](NC(=O)[C@H](CO)NC(=O)[C@H](Cc1ccc(O)cc1)NC(=O)[C@H](CC(=O)O)NC(=O)[C@H](CO)NC(=O)[C@@H](NC(=O)[C@H](Cc1ccccc1)NC(=O)[C@@H](NC(=O)CNC(=O)[C@H](CCC(=O)O)NC(=O)C(C)(C)NC(=O)[C@H](Cc1ccc(O)cc1)NC)[C@@H](C)O)[C@@H](C)CC)C(=O)N[C@@H](C)C(=O)N[C@@H](CC(C)C)C(=O)N[C@@H](CC(=O)O)C(=O)N[C@@H](CCCNC(=N)N)C(=O)NC(C)(C)C(=O)N[C@@H](C)C(=O)N[C@@H](CCC(N)=O)C(=O)NC(C)(C)C(=O)N[C@@H](CCCCNC(=O)COCCOCCNC(=O)COCCOCCNC(=O)CC[C@H](NC(=O)CC[C@H](NC(=O)CCCCCCCCCCCCCCCCC(=O)O)C(=O)O)C(=O)O)C(=O)N[C@@H](Cc1ccccc1)C(=O)N[C@H](C(=O)N[C@@H](CC(N)=O)C(=O)N[C@@H](Cc1c[nH]c2ccccc12)C(=O)N[C@@H](CC(C)C)C(=O)N[C@@H](CC(C)C)C(=O)N[C@@H](C)C(=O)N[C@@H](CCC(N)=O)C(=O)N[C@@H](CO)C(=O)N1CCC[C@H]1C(=O)N[C@@H](CO)C(=O)N[C@@H](CO)C(=O)NCC(=O)N[C@@H](C)C(=O)N1CCC[C@H]1C(=O)N1CCC[C@H]1C(=O)N1CCC[C@H]1C(=O)N[C@@H](CO)C(N)=O)C(C)C [Compound 97] (H-[NMeY][Aib]EGTFISDYSIALDR[Aib]AQ[Aib]K([AEEA-AEEA-γGlu-γGlu-C18 diacid])FVNWLLAQSPSSGAPPPS-NH2) | ≥ 60 | ≥ 15 |
| CC[C@H](C)[C@H](NC(=O)[C@H](CO)NC(=O)[C@H](Cc1ccc(O)cc1)NC(=O)[C@H](CC(=O)O)NC(=O)[C@H](CO)NC(=O)[C@@H](NC(=O)[C@H](Cc1ccccc1)NC(=O)[C@@H](NC(=O)CNC(=O)[C@H](CCC(=O)O)NC(=O)C(C)(C)NC(=O)[C@H](Cc1ccc(O)cc1)NC)[C@@H](C)O)[C@@H](C)CC)C(=O)N[C@@H](C)C(=O)N[C@@H](CC(C)C)C(=O)N[C@@H](CC(=O)O)C(=O)N[C@@H](CCCNC(=N)N)C(=O)NC(C)(C)C(=O)N[C@@H](CCCCNC(=O)COCCOCCNC(=O)COCCOCCNC(=O)CC[C@H](NC(=O)CC[C@H](NC(=O)CCCCCCCCCCCCCCCCCCC(=O)O)C(=O)O)C(=O)O)C(=O)N[C@@H](CCC(N)=O)C(=O)NC(C)(C)C(=O)N[C@@H](CC(N)=O)C(=O)N[C@@H](Cc1ccccc1)C(=O)N[C@H](C(=O)N[C@@H](CC(N)=O)C(=O)N[C@@H](Cc1c[nH]c2ccccc12)C(=O)N[C@@H](CC(C)C)C(=O)N[C@@H](CC(C)C)C(=O)N[C@@H](C)C(=O)N[C@@H](CCC(N)=O)C(=O)N[C@@H](CO)C(=O)N1CCC[C@H]1C(=O)N[C@@H](CO)C(=O)N[C@@H](CO)C(=O)NCC(=O)N[C@@H](C)C(=O)N1CCC[C@H]1C(=O)N1CCC[C@H]1C(=O)N1CCC[C@H]1C(=O)N[C@@H](CO)C(N)=O)C(C)C [Compound 99] (H-[NMeY][Aib]EGTFISDYSIALDR[Aib]K([AEEA-AEEA-γGlu-γGlu-C20 diacid])Q[Aib]NFVNWLLAQSPSSGAPPPS-NH2) | ≥ 60 | – |
